Target: T1, human DGAT1 enzyme (Homo sapiens, UniProt O75907)
T1 construct: made in house; host or cells: Sf9 insect cells (microsomes)
T1 sequence (O75907 1-488): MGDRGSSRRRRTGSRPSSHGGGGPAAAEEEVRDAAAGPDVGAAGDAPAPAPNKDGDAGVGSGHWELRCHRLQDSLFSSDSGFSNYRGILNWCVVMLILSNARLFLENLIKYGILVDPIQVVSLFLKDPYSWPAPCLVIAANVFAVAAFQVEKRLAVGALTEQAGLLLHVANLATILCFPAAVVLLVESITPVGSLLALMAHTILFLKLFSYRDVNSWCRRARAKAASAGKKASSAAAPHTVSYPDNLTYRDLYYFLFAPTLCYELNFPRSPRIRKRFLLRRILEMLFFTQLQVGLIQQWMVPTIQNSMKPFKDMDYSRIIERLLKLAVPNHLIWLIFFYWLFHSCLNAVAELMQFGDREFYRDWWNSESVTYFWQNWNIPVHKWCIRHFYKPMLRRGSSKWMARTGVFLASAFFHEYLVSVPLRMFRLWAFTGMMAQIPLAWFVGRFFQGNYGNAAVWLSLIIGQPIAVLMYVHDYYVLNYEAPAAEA
Test: in vitro DGAT1 inhibition assay (microsomes, [14C]-palmitoyl-CoA, scintillation proximity)
Format: biochemical
Settings: human DGAT1 expressed in Sf9 insect cell microsomes; 2 hours at room temperature; read-out: hDGAT IC50
Method: A useful assay to determine the DGAT inhibitory activity of the inventive compounds is described below:
The in vitro assay to identify DGAT1 inhibitors uses human DGAT1 enzyme expressed in Sf9 insect cells prepared as microsomes. The reaction is initiated by the addition of the combined substrates 1,2-dioleoyl-sn-glycerol and [^14C]-palmitoyl-CoA and incubated with test compounds and microsomal membranes for 2 hours at room temperature. The assay is stopped by adding 0.5 mg wheat germ agglutinin beads in assay buffer with 1% Brij-35 and 1% 3-cholamidopropyldimethyl-ammonio-1-propane sulfonate. Plates are sealed with TopSeal and incubated for 18 hours to allow the radioactive triglyceride product to come into proximity with the bead. Plates are read on a TopCount instrument.
Percent inhibition was calculated as the percent of (test compound inhibition minus non-specific binding) relative to (total binding minus non-specific binding). IC50 values were determined by curve fitting the data to a Sigmoidal dose-response in GraphPad Prism utilizing the following equation:
Y=A+(B−A)/(1+10̂((Log IC50−X))),
where A and B are the bottom and top of the curve (highest and lowest inhibition), respectively, and X is the logarithm of concentration.

## CC1CCCN(c2nc(C(F)(F)F)c(C(=O)Nc3ccc(-c4ccc(C(=O)NCCC(=O)O)cc4)cc3)o2)C1 (stereo not shown) [Compound 328, 3-(4′-(2-(3-methylpiperidin-1-yl)-4-(trifluoromethyl)oxazole-5-carboxamido)biphenyl-4-ylcarboxamido)propanoic acid]
  IC50: 101 to 500 nM

## O=C(Nc1ccc(N2CCN(C(=O)Nc3ccccc3F)CC2)nc1)c1oc(N2CCN(c3ccccc3F)CC2)nc1C(F)(F)F [Compound 336, 2-(4-(2-fluorophenyl)piperazin-1-yl)-N-(6-(4-(2-fluorophenylcarbamoyl)-piperazin-1-yl)pyridin-3-yl)-4-(trifluoromethyl)oxazole-5-carboxamide]
  IC50: 101 to 500 nM

## CC1CCCN(c2nc(C(F)(F)F)c(C(=O)Nc3ccc(N4CCN(C(=O)Nc5ccccc5C(=O)O)CC4)nc3)o2)C1 (stereo not shown) [Compound 300, 2-(4-(5-(2-(3-methylpiperidin-1-yl)-4-(trifluoromethyl)oxazole-5-carboxamido)pyridin-2-yl)piperazine-1-carboxamido)benzoic acid]
  IC50: 11 to 100 nM

## O=C(Nc1ccc(N2CCN(C(=O)Nc3ccccc3F)CC2)nc1)c1oc(N2CCC(c3ccc(Cl)cc3)CC2)nc1C(F)(F)F [Compound 273, 2-(4-(4-chlorophenyl)piperidin-1-yl)-N-(6-(4-(2-fluorophenylcarbamoyl)piperazin-1-yl)pyridin-3-yl)-4-(trifluoromethyl)oxazole-5-carboxamide]
  IC50: 11 to 100 nM

## O=C(Nc1ccc(N2CCN(C(=O)c3ccccc3F)CC2)nc1)c1oc(N2CCC(c3ccccc3)CC2)nc1C(F)(F)F [Compound 284, N-(6-(4-(2-fluorobenzoyl)piperazin-1-yl)pyridin-3-yl)-2-(4-phenylpiperidin-1-yl)-4-(trifluoromethyl)oxazole-5-carboxamide]
  IC50: 101 to 500 nM

## O=C(Nc1ccc(N2CCN(C(=O)Nc3ccccc3F)CC2)nc1)c1oc(N2CCCCCC2)nc1C(F)(F)F [Compound 334, 2-(azepan-1-yl)-N-(6-(4-(2-fluorophenylcarbamoyl)piperazin-1-yl)pyridin-3-yl)-4-(trifluoromethyl)oxazole-5-carboxamide]
  IC50: 11 to 100 nM

## CN(CC1(c2ccccc2)CC1)c1nc(C(F)(F)F)c(C(=O)Nc2ccc(N3CCN(C(=O)Nc4ccccc4F)CC3)nc2)o1 [Compound 317, N-(6-(4-(2-fluorophenylcarbamoyl)piperazin-1-yl)pyridin-3-yl)-2-(methyl((1-phenylcyclopropyl)methyl)amino)-4-(trifluoromethyl)oxazole-5-carboxamide]
  IC50: 11 to 100 nM

## CC1CCCN(c2nc(C(F)(F)F)c(C(=O)Nc3ccc(O[C@@H]4CCN(C(=O)Nc5ccccc5F)C4)nc3)o2)C1 (stereo partly drawn) [Compound 263, N-(6-((R)-1-(2-fluorophenylcarbamoyl)pyrrolidin-3-yloxy)pyridin-3-yl)-2-(3-methylpiperidin-1-yl)-4-(trifluoromethyl)oxazole-5-carboxamide]
  IC50: 11 to 100 nM

## O=C(Nc1ccc(N[C@H]2CCN(C(=O)Nc3ccccc3F)C2)nc1)c1sc(N2CCC(c3ccccc3)CC2)nc1C(F)(F)F [Compound 259, (S)—N-(6-(1-(2-fluorophenylcarbamoyl)pyrrolidin-3-ylamino)pyridin-3-yl)-2-(4-phenylpiperidin-1-yl)-4-(trifluoromethyl)thiazole-5-carboxamide]
  IC50: 101 to 500 nM

## O=C(O)C[C@H]1CC[C@H](c2ccc(NC(=O)c3oc(N4CCC(c5ccccc5)CC4)nc3C(F)(F)F)cc2)CC1 [Compound 216, 2-((1r,4r)-4-(4-(2-(4-phenylpiperidin-1-yl)-4-(trifluoromethyl)oxazole-5-carboxamido)phenyl)cyclohexyl)acetic acid]
  IC50: 101 to 500 nM

## CN(c1ncc(C(=O)Nc2ccc(N3CCN(C(=O)Nc4ccccc4F)CC3)nc2)c(C(F)(F)F)n1)C1CCCC1 [Compound 220, 2-(cyclopentyl(methyl)amino)-N-(6-(4-(2-fluorophenylcarbamoyl)piperazin-1-yl)pyridin-3-yl)-4-(trifluoromethyl)pyrimidine-5-carboxamide]
  IC50: 101 to 500 nM

## Cc1ccccc1NC(=O)c1ccc(-c2ccc(NC(=O)c3oc(N4CCCC(C)C4)nc3C(F)(F)F)cc2)nc1 (stereo not shown) [Compound 242, 2-(3-methylpiperidin-1-yl)-N-(4-(5-(o-tolylcarbamoyl)pyridin-2-yl)phenyl)-4-(trifluoromethyl)oxazole-5-carboxamide]
  IC50: 11 to 100 nM

## O=C(Nc1ccc(N[C@H]2CCN(C(=O)Nc3ccccc3F)C2)nc1)c1oc(N2CCC(c3ccccc3)CC2)nc1C(F)(F)F [Compound 257, (S)—N-(6-(1-(2-fluorophenylcarbamoyl)pyrrolidin-3-ylamino)pyridin-3-yl)-2-(4-phenylpiperidin-1-yl)-4-(trifluoromethyl)oxazole-5-carboxamide]
  IC50: 101 to 500 nM

## O=C(O)c1ccccc1NC(=O)N1CCN(c2ccc(NC(=O)c3oc(N4CCC(c5ccccc5)CC4)nc3C(F)(F)F)cn2)CC1 [Compound 292, 2-(4-(5-(2-(4-phenylpiperidin-1-yl)-4-(trifluoromethyl)oxazole-5-carboxamido)pyridin-2-yl)piperazine-1-carboxamido)benzoic acid]
  IC50: 11 to 100 nM

## O=C(Nc1ccc(N2CCN(C(=O)Nc3ccccc3F)CC2)nc1)c1sc(CSc2ccccc2)nc1C(F)(F)F [Compound 253, N-(6-(4-(2-fluorophenylcarbamoyl)piperazin-1-yl)pyridin-3-yl)-2-(phenylthiomethyl)-4-(trifluoromethyl)thiazole-5-carboxamide]
  IC50: 11 to 100 nM

## CC1CCCN(c2nc(C(F)(F)F)c(C(=O)Nc3ccc(-c4ccc(C(=O)N5CCC(C(=O)O)CC5)cn4)cc3)o2)C1 (stereo not shown) [Compound 251, 1-(6-(4-(2-(3-methylpiperidin-1-yl)-4-(trifluoromethyl)oxazole-5-carboxamido)phenyl)nicotinoyl)piperidine-4-carboxylic acid]
  IC50: 101 to 500 nM

## O=C(Nc1ccc(N2CCN(C(=O)Nc3ccccc3F)CC2)nc1)c1sc(COc2ccccc2)nc1C(F)(F)F [Compound 252, N-(6-(4-(2-fluorophenylcarbamoyl)piperazin-1-yl)pyridin-3-yl)-2-(phenoxymethyl)-4-(trifluoromethyl)thiazole-5-carboxamide]
  IC50: 101 to 500 nM

## O=C(CN1CCN(c2ccc(NC(=O)c3oc(N4CCC(c5ccccc5)CC4)nc3C(F)(F)F)cn2)CC1)c1ccccc1F [Compound 289, N-(6-(4-(2-(2-fluorophenyl)-2-oxoethyl)piperazin-1-yl)pyridin-3-yl)-2-(4-phenylpiperidin-1-yl)-4-(trifluoromethyl)oxazole-5-carboxamide]
  IC50: 101 to 500 nM

## O=C(Nc1ccc(N2CCN(C(=O)Nc3ccccc3F)CC2)nc1)c1oc(N2CCC(O)(c3ccccc3)CC2)nc1C(F)(F)F [Compound 324, N-(6-(4-(2-fluorophenylcarbamoyl)piperazin-1-yl)pyridin-3-yl)-2-(4-hydroxy-4-phenylpiperidin-1-yl)-4-(trifluoromethyl)oxazole-5-carboxamide]
  IC50: 101 to 500 nM

From patent publication US20110224136A1, “INHIBITORS OF DIACYLGLYCEROL ACYLTRANSFERASE” (priority 2008, published 2011)
